Measurements as given in PubChem BioAssay AID1645862 (Buhrlage Lab, Dana-Farber Cancer Institute and Novartis …, 2021).
pIC50: −log10 of the molar value. Activity calls are given as the source filed them. How the calls were made is not given here.

The compounds below were run against Ubiquitin carboxyl-terminal hydrolase 8 (Homo sapiens) (UniProt P40818) (assay: Ubiquitin-specific protease 8 inhibitors, concentration-effect, biochemical, validation of initial actives (AID 1645862;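 further: potency reflects inhibition of USP8 cleavage of a ubiquitin rhodamine substrate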)). Conditions: recombinant USP8 deubiquitinase activity assay.
Ubiquitin carboxyl-terminal hydrolase 8 (Homo sapiens), sequence (P40818 whole entry, looked up): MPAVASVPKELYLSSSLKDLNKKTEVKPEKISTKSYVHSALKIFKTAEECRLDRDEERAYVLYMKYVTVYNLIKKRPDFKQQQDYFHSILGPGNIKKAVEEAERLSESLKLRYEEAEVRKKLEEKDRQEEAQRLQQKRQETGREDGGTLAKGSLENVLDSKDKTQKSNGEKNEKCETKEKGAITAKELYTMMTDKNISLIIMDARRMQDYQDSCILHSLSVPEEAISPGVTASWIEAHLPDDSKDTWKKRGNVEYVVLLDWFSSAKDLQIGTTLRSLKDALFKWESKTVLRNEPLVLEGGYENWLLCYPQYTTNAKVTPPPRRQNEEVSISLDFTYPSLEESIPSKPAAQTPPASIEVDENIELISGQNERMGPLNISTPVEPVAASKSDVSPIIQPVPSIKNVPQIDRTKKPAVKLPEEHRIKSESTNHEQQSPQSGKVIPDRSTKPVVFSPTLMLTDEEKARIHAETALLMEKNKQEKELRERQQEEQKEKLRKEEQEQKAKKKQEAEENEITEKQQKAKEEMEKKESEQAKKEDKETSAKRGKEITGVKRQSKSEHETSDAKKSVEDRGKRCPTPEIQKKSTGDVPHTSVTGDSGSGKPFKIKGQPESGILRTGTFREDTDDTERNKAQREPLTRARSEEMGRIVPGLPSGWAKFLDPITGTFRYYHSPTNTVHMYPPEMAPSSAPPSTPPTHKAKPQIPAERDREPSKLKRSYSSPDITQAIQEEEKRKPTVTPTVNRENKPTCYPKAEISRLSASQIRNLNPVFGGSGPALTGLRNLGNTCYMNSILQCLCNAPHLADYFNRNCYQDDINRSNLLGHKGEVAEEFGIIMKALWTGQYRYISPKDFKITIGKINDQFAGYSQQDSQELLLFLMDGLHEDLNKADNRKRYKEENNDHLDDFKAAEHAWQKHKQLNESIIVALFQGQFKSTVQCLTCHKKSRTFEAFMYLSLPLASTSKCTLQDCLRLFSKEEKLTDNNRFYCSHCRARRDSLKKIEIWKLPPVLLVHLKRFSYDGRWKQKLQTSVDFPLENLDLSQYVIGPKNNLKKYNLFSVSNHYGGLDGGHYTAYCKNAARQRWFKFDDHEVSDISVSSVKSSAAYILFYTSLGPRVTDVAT

Compound | IC50 | pIC50
O=c1cc(Cc2ccccc2)nc2c(-c3ccccc3)c(COc3ccccc3)[nH]n12 | > 40 µM (inactive) | –
O=C1CC(c2ccccc2)n2ncnc2N1 (centres undefined) | > 40 µM (inactive) | –
O=C(CCn1c(=O)c2ccccc2n(Cc2ccccc2F)c1=O)NCc1ccco1 | > 40 µM (inactive) | –
Cc1ccc(NC(=O)Cn2c(=O)n(CCC(=O)NCCc3ccccc3)c(=O)c3ccccc32)cc1C | > 40 µM (inactive) | –
Cc1cccc(OCC2=NN3C(=N)/C(=C\c4cc(C)n(-c5cc(C)cc(C)c5)c4C)C(=O)N=C3S2)c1 | > 40 µM (inactive) | –
Cc1ccc2[nH]c(=O)c(CN(CC3COCCO3)S(=O)(=O)c3ccc(F)cc3)cc2c1 (centres undefined) | > 40 µM (inactive) | –
O=c1c(O)c(-c2ccc(O)c(O)c2)oc2cc(O)cc(O)c12 | – | 6.10
O=c1c2ccccc2nc(CSc2cccc(Cl)c2Cl)n1-c1ccccc1 | > 40 µM (inactive) | –
CCc1ccccc1NC(=O)CN1C(=O)C2CCCC2=Nc2ccccc21 (centres undefined) | > 40 µM (inactive) | –
O=C(Cn1cc(C(=O)C(F)(F)F)c2ccccc21)N1CCc2ccccc21 | > 40 µM (inactive) | –
CSc1ncccc1C(=O)NC1(O)C(=O)c2ccccc2C1=O | – | 5.29
O=C(NC1CCCCC1)C(c1ccc(F)cc1)N(C(=O)C1COc2ccccc2O1)c1ccc2c(c1)OCO2 (centres undefined) | > 40 µM (inactive) | –
CO/C=C/C(=O)c1cc2cnc3c(=N)cc(NC(C)=O)c([nH]1)c23 | – | 5.84
Cc1ccc2cc(-c3noc(CCC(=O)NC4CCCC4)n3)c(=O)[nH]c2c1 | > 40 µM (inactive) | –
COc1cccc2c1NC(=O)C21CCN(C(=O)Nc2cccc3ccccc23)CC1 | > 40 µM (inactive) | –
O=C(CCCn1c(=O)c2sccc2n(CC(=O)NCCC2=CCCCC2)c1=O)NCc1ccc2c(c1)OCO2 | > 40 µM (inactive) | –
COc1ccc(COc2ccc3c(C)c(CC(=O)N4CC[C@@]5(O)CCCC[C@H]5C4)c(=O)oc3c2)cc1 | > 40 µM (inactive) | –
COc1cccc(C(=O)Cn2c(=O)n(CCCC(=O)NCc3ccco3)c(=O)c3ccc(Cl)cc32)c1 | > 40 µM (inactive) | –
O=c1cc(-c2ccc(O)c(O)c2)oc2cc(O[C@@H]3O[C@H](CO)[C@@H](O)[C@H](O)[C@H]3O)cc(O)c12 | – | 5.70
COc1ccc(-n2c(=O)c3ccc(C(=O)NCCc4ccccc4)cc3n(CC(=O)NCc3ccco3)c2=O)cc1 | > 40 µM (inactive) | –

Compound | IC50 | pIC50
O[C@H]1[C@H](NCc2cccc(C(F)(F)F)c2)[C@@H](c2cncnc2)C[C@H]1O | > 40 µM (inactive) | –
Cc1cc(C(=O)CSc2nc3ccccc3[nH]2)c(C)n1Cc1ccco1 | > 40 µM (inactive) | –
NS(=O)(=O)c1cccc(NS(=O)(=O)c2ccc(/C=C/C(=O)OCC(=O)c3ccc(Br)cc3)cc2)c1 | > 40 µM (inactive) | –
COc1ccc(OC)c(NC2=NS(=O)(=O)C(c3cccc(Br)c3)=C2C)c1 | > 40 µM (inactive) | –
Cc1c(C(=O)NCc2cccc(Br)c2)oc2c1-c1[nH]ncc1CC2 | > 40 µM (inactive) | –
O=C(Cn1ncc2c(=O)oc3ccccc3c21)NCc1ccc2c(c1)OCO2 | > 40 µM (inactive) | –
Cn1cc(NC(=O)Nc2cccc(C(F)(F)F)c2)c2ccccc2c1=O | – | 5.03
CSc1nc(N)c2c(n1)N[C@H]1OC[C@H](O)[C@H](O)[C@H]1N2 | > 40 µM (inactive) | –
CCCn1c(=O)c2sccc2n2c(CCC(=O)N3CCc4ccccc4C3)nnc12 | > 40 µM (inactive) | –
COc1ccccc1Nc1ncc(C(=O)NCc2ccc(F)cc2)c2ccccc12 | > 40 µM (inactive) | –
N=C1/C(=C/c2cn(Cc3ccccc3F)c3ccccc23)C(=O)N=C2SC(C(F)(F)F)=NN12 | > 40 µM (inactive) | –
CC(C)=CCOC(C)(C)[C@H]1OC2CC[C@@]3(C)C(CCC4Cc5c([nH]c6ccccc56)[C@@]43C)C23OC3[C@@H]1O (some centres undefined) | – | 4.46
COc1ccc(NC(=O)Nc2ccc(F)c(-c3nnc(-c4ccccc4)o3)c2)c(OC)c1 | > 40 µM (inactive) | –
Cc1ccc(NC(=O)CSc2nnc(-c3n[nH]c4c3CCC4)n2N)cc1C | > 40 µM (inactive) | –
N#Cc1ccccc1Cn1c(=O)n(CCCC(=O)NCc2ccc(F)cc2)c(=O)c2ccccc21 | > 40 µM (inactive) | –
O=C(Cn1c(=O)n(CCC(=O)NC2CCCC2)c(=O)c2ccccc21)NCc1ccccc1Cl | > 40 µM (inactive) | –
O=C(Nc1cccnc1)C1c2ccccc2C(=O)N(c2ccccc2)C12CCCCC2 (centres undefined) | > 40 µM (inactive) | –
Cc1nc2nc(C(c3ccccc3)c3ccccc3)[nH]n2c(=O)c1Cc1ccccc1 | > 40 µM (inactive) | –
COc1ccc(NC2c3ccccc3C(=O)N2c2ccccn2)cc1 (centres undefined) | > 40 µM (inactive) | –
O=C(Nc1cc(F)c2nc(N3CCOCC3)ccc2c1)C1CC1 | – | 4.47

Compound | IC50 | pIC50
CCOc1ccc(S(=O)(=O)Nc2ccc[nH]c2=O)cc1 | > 40 µM (inactive) | –
COc1ccccc1Nc1ncc(C(=O)NCCc2ccc(Cl)cc2)c2ccccc12 | > 40 µM (inactive) | –
Cc1cc(C)c(NC(=O)CSc2nc3nccnc3c(=O)n2Cc2ccccc2Cl)c(C)c1 | > 40 µM (inactive) | –
OC1CCCN(c2ncc(-c3cnccn3)c(-c3cccs3)n2)C1 (centres undefined) | > 40 µM (inactive) | –
Cc1cccc(NC(=O)c2noc3c2CCc2sccc2-3)n1 | > 40 µM (inactive) | –
Cc1cccn2c(=O)c3cc(C#N)c(=O)n(-c4cccc(C(F)(F)F)c4)c3nc12 | > 40 µM (inactive) | –
COCCNC(=O)Cn1c(=O)n(Cc2ccc(C(=O)NCc3ccc(C)cc3)cc2)c(=O)c2ccccc21 | > 40 µM (inactive) | –
Cc1ccc(S(=O)(=O)Nc2nc(-c3ccc4c(c3)NC(=O)C(C)O4)c(C)s2)cc1 (centres undefined) | > 40 µM (inactive) | –
CCC(=O)N1c2ccccc2NC2=C(C(=O)CC(c3ccccc3OCc3ccccc3)C2)C1c1ccccc1 (centres undefined) | > 40 µM (inactive) | –
COc1ccc(NC(=O)c2nnc(C(=O)NCCN3CCCCCC3)s2)cc1 | > 40 µM (inactive) | –
CC1=C(C)C(c2c(-c3ccc(C)cc3)[nH]c3ccccc23)N(C(C)(C)C)C1=O (centres undefined) | > 40 µM (inactive) | –
COC(=O)c1ccccc1NC(=O)CSc1nnc(CNc2ccc(F)cc2)n1CC1CCCO1 (centres undefined) | > 40 µM (inactive) | –
CN(C)S(=O)(=O)c1ccc(NC(=O)CN2CCCc3ccccc32)cc1 | > 40 µM (inactive) | –
O=C(Cn1c(-c2ccccc2)ncc(C(=O)NC2CC2)c1=O)Nc1ccccc1 | > 40 µM (inactive) | –
O=C(Cn1cc(C(=O)C(F)(F)F)c2cc(Br)ccc21)N1CCc2ccccc21 | > 40 µM (inactive) | –
O=C(Cn1c(=O)c2ccccc2n(CC(=O)Nc2cc(Cl)cc(Cl)c2)c1=O)NCc1ccco1 | > 40 µM (inactive) | –
Cc1ccc(CNC(=O)CCCn2c(=O)c3sccc3n(CC(=O)OCc3ccccc3)c2=O)cc1 | > 40 µM (inactive) | –
CC(C)=CCc1c(O)cc2c(c1C)OC(=O)c1c(C)c(Cl)c(O)c(CO)c1O2 | > 40 µM (inactive) | –

Second part, the compound after the results:

IC50 | pIC50 | Compound
> 40 µM (inactive) | – | COc1ccc2[nH]c(=O)c(CN(C)C(=O)c3ccc([N+](=O)[O-])cc3)cc2c1
> 40 µM (inactive) | – | CSc1cccc(NC(=O)COc2cccc3ccccc23)c1
> 40 µM (inactive) | – | O=C(NCc1ccccc1Cl)C1CCN(c2ccc(-c3ccccc3)nn2)CC1
– | 5.25 | O=C(NC1(O)C(=O)c2ccccc2C1=O)c1ccc(-c2csnn2)cc1
– | 4.78 | Brc1ccc(Nc2nc(-c3ccccn3)nc3ccccc23)cc1
> 40 µM (inactive) | – | Cc1ccc(C(=O)O)cc1NC(=O)C(Sc1cccc(NC(=O)c2cccc(Cl)c2)c1)c1ccccc1 (centres undefined)
> 40 µM (inactive) | – | COc1ccc(-c2cc(C(=O)Nc3ccnn3Cc3ccccc3)no2)cc1
> 40 µM (inactive) | – | Cc1ccc(NC(=O)Nc2ccc(C)n(CC(=O)Nc3cc(C)ccc3C)c2=O)cc1
– | 4.63 | Cc1cccc(C(=O)Nc2cccc(SC(C(=O)Nc3ccc(Cl)c(C(=O)O)c3)c3ccccc3)c2)c1 (centres undefined)
> 40 µM (inactive) | – | Nc1ccc(C(=O)OCC(=O)NC2CCCc3ccccc32)cc1[N+](=O)[O-] (centres undefined)
> 40 µM (inactive) | – | CCOc1ccc(NC(=O)Cn2c(=O)n(CCC(=O)NCc3ccco3)c(=O)c3ccccc32)cc1
> 40 µM (inactive) | – | O=C(Cn1cnc(-c2ccccc2)cc1=O)Nc1ccc(Oc2ccccc2)cc1
> 40 µM (inactive) | – | COc1cccc(-n2cnc3cc(C(=O)NCCc4ccccc4)ccc3c2=O)c1
> 40 µM (inactive) | – | O=C(NCCc1nc2ccccc2n1Cc1ccccc1F)c1ccc(Cl)cc1
> 40 µM (inactive) | – | CCOc1ccc2nc(NC(=O)c3ccc4ccccc4n3)sc2c1
> 40 µM (inactive) | – | O=C(Nc1nc2c(ccc3ccccc32)s1)c1cccc(Br)c1

IC50 | pIC50 | Compound
– | 5.13 | Cc1ccc(Cn2cc(C(=O)Nc3ccccc3C(N)=O)ccc2=O)cc1
> 40 µM (inactive) | – | COc1ccc(-c2noc(CC(=O)Nc3cccc(OC)c3)n2)cc1
> 40 µM (inactive) | – | O=C(COc1cccc(-c2noc(-c3ccc([N+](=O)[O-])cc3)n2)c1)Nc1ccccc1
> 40 µM (inactive) | – | Cc1ccc(-n2cc(C(=O)NCCCc3ccccc3)nn2)cc1
> 40 µM (inactive) | – | Cc1ccc(NC(=O)c2cc(-c3ccccn3)nc3c(Cl)cccc23)nc1
> 40 µM (inactive) | – | COc1ccc(C(=O)Nc2nc(-c3ccc4c(c3)NC(=O)CO4)c(C)s2)cc1OC
> 40 µM (inactive) | – | CCOc1ccc(-c2ccc3nnc(SCC(=O)Nc4ccc(F)cc4)n3n2)cc1
> 40 µM (inactive) | – | O=C(Cn1cnc(-c2noc(-c3ccc(F)cc3)n2)c1)Nc1ccccc1F
> 40 µM (inactive) | – | CC(=O)c1ccc(NC(=O)C2CC(=O)Nc3nc(SCc4ccccc4)nn32)cc1 (centres undefined)
> 40 µM (inactive) | – | O=C(COc1ccccc1)Nc1ccc(-c2nc3cnccc3o2)c(O)c1
> 40 µM (inactive) | – | O=C(CSc1oc(-c2ccc(F)cc2)nc1S(=O)(=O)c1ccc(F)cc1)Nc1ccc(F)cc1
– | 4.67 | O=C(Nc1ccc(-c2cn3ccsc3n2)cc1)c1ccc(Cl)c([N+](=O)[O-])c1
> 40 µM (inactive) | – | Cc1ccc(C(=O)O)cc1NC(=O)C(Sc1cccc(NC(=O)c2ccccc2C)c1)c1ccccc1 (centres undefined)
> 40 µM (inactive) | – | CCOC(=O)c1cc2c(ccn2-c2ccc(F)cc2)n1CC(=O)Nc1ccc2c(c1)OCCO2
> 40 µM (inactive) | – | O=C(Nc1ccc(-c2nc3ccccc3o2)cc1)c1ccc(S(=O)(=O)N2CCc3ccccc3C2)cc1
